Legend:
[1] = Free radical scavenging activity by DPPH method; type: biochemical; conditions: 30 minutes, room temperature
Protocol: Anti-oxidative effect of Osteomeles […] extract, fractions thereof obtained from each of hexane layer, ethyl acetate layer, butanol layer and water layer of the extract was investigated in vitro. Free radical scavenging activity of each sample was measured by DPPH method (Brand-Williams W, et al., Technology, 1995, 28, 25-30). Samples were dissolved in ethanol, and diluted at different concentrations. Each of the diluted sample was distributed in 96 well plate (20 μl/well). […] DPPH solution dissolved in ethanol was added to each well by 180 μl to make the final volume of the reaction solution 200 μl, followed by reaction at room temperature for 30 minutes. Then, OD517 was measured with ELISA reader (Bio-TEK, Synergy HT, USA) to investigate absorbance changes by reduction of DPPH. Free radical scavenging activity was presented as RC50, which is the amount of sample (μg/ml) needed for the reduction of 50% DPPH. For the positive control, butylated hydroxytoluene (BHT) was used. Anti-oxidative effect of Osteomeles […] extract was measured in vitro by the same manner as described above and the results are shown in Table 7.

[2] = test system: type II diabetes animal model, Spontaneous Diabetic Torii (SDT) rat; assay: Type II diabetes animal model, SDT rat; type: in vivo
Description: To investigate the preventive and therapeutic effect of Osteomeles schwerinae on diabetic complications in type II diabetes animal model, the extract was orally administered to Spontaneous Diabetic Torii (SDT) rats for 16 weeks, followed by analysis of the effect. Spontaneous Diabetic Torii (SDT) rats, the type II diabetes animal model, were used as test animals. Particularly, male SDT rats at 10 weeks (CLEA Japan Inc., Tokyo, Japan) were adapted for 1 week, and then raised for 15 weeks until high blood glucose was induced up to the level of 300 mg/dl. Feeds and water were provided freely. 15 weeks later, the rats were divided into 5 groups, 8 rats per each group. As test drugs, Osteomeles schwerinae extract (Os-100, OS-250) and metformin (MET, control drug) were orally administered once a day. The experimental groups were as follows: the normal group (NOR), the diabetes group (DM), the diabetes group treated with 350 mg/kg of metformin (MET), the diabetes group treated with 100 mg/kg of Osteomeles schwerinae extract (OS-100), and the diabetes group treated with 250 mg/kg of Osteomeles schwerinae extract (OS-250). Each group was orally administered with the test drug once a day for 16 weeks. Urine was taken for 24 hours before autopsy. The organs extracted from the autopsy were stored at −80° C.
The test animals were anesthetized by peritoneally injecting pentobarbital sodium (25 mg/kg body weight). Heart was extracted by opening abdominal cavity and thoracic cavity. 50 mg/ml of fluorescein-dextran (2×10^6 molecular weight) dissolved in 1 ml/ml sterilized PBS was injected in the left ventricle. 10 minutes later, eye balls were extracted. Retina was separated from eyecup of the left eye ball. The isolated retina was placed on the slide, followed by mounting with aqueous mounting medium. The slide was completely dried and observed under fluorescent microscope. Fluorescent material was injected in retinal blood vessel, followed by observation. […] To investigate blood-retinal barrier damage, outflow of the fluorescent material was observed. […] However, the fluorescent material was leaked out of blood vessels, indicating blood-retinal barrier damage, in multiple animals of the diabetes group (arrow), and non-perfusion area (arrow) caused by the blood vessel being narrow was also observed in some of those animals in the diabetes group.
Lens was separated and lens opacity was examined to investigate the preventive effect of the extract on lens opacity. Eye balls were extracted during autopsy, which were placed in PBS (phosphate buffered saline, pH 7.4). Lens was carefully separated from the eyeball by posterior approach. Then, iris and zonule were eliminated. The lens was photographed under optical microscope equipped with CCD camera (BX51, Olympus, Japan). Lens opacity was measured with the photographed lens images by using Scion image analyzer (Scion Corporation, USA). The results of investigation of lens opacity with the lens isolated from the eye ball extracted during autopsy are shown in FIG. 39 and in FIG. 40. […] Incidence rate of cataract and lens opacity were quantitatively analyzed.
Lens opacity is caused by the degeneration of lens fiber composing lens. Thus, to investigate the effect of Osteomeles schwerinae extract on lens fiber degeneration, the effect of Osteomeles schwerinae extract on lens fiber degeneration in SDT type II diabetes rat was analyzed. To observe the degeneration of lens fiber induced by cataract, lens was fixed in 10% neutralized formalin (Microme, USA) for 24 hours, followed by the conventional tissue treatment. After paraffin embedding, the embedded block was cut into 2 μm thick sections, followed by hydration. The sections were stained with rhodamine-labeled wheat-germ agglutinin (WGA, Vector Laboratory, USA), and observed under fluorescent microscope (BX51, Olympus, Japan). To investigate the preventive effect on lens fiber degeneration, lens was stained and observed. […]

[3] = test system: type II diabetes animal model, Spontaneous Diabetic Torii (SDT) rat; assay: Type II diabetes animal model, SDT rat; type: in vivo; conditions: oral once a day 16 weeks; extract 100 and 350 mg/kg as printed; metformin 350 mg/kg; vs diabetes group

| SMILES | RC50 (μg/ml), amount of sample needed for the reduction of 50% DPPH [1] [µg/mL] | blood-retinal barrier damage, outflow of the fluorescent material ([2]; 16 weeks) | pericyte loss, acellular capillary formation and closed vessels ([2]; 16 weeks) | GFAP positive reaction, Muller cell activation ([2]; 16 weeks, vs diabetes group) | aldose reductase (AR) activity in lens ([2]; 16 weeks, extract 250 mg/ml as printed, metformin, vs diabetes group) | lens fiber degeneration, swelling and vesicle formation ([2]; 16 weeks, extract high concentration, metformin 350 mg/kg) | retinal angiogenesis, fluorescein-dextran ([2]; 16 weeks, extract low and high concentration, metformin 350 mg/kg) | podocyte loss, synaptopodin staining ([2]; 16 weeks, extract low and high concentration, metformin 350 mg/kg, vs diabetes group) | glomerular hypertrophy and mesangial matrix enlargement, PAS staining ([2]; oral once a day 16 weeks, extract 100 and 250 mg/kg, metformin 350 mg/kg) | level of AGEs in urine [3] |
| --- | --- | --- | --- | --- | --- | --- | --- | --- | --- | --- |
| Cc1cc(C(C)(C)C)c(O)c(C(C)(C)C)c1 [BHT, butylated hydroxytoluene] | 26.75 ± 10.75 |  |  |  |  |  |  |  |  |  |
| CN(C)C(=N)N=C(N)N [metformin] |  | observed just barely | significantly inhibited | rather decreased | AR activity was significantly reduced | improving effect was hardly observed | Angiogenesis was also observed | no significant difference | morphological changes were reduced, which was not significant | not significantly changed |

From patent US8784911B2, “Compositions for treatment and prevention of diabetic complications using Osteomeles schwerinae” (Korea Institute of Oriental Medicine, priority 2009, dated 2014)
